# Reference: US7973047B2, “Beta-Secretase modulators and methods of use” (Amgen Inc., priority 2010, dated 2011)
# Read-outs that look alike come from different tables or passages of the source.
# How the values were obtained:
# BACE = BACE (Homo sapiens, UniProt P56817); assay: In vitro enzymatic BACE FRET (fluorescence resonance energy transfer) assay; assay type: biochemical; conditions: BACE enzyme 0.2 nM, FRET substrate 50 nM, acetate buffer pH 4.2
# Method: In Vitro Enzymatic BACE FRET (Fluorescence Resonance Energy Transfer) Assay
# Assay buffer is 0.05 M acetate, pH 4.2, 10% DMSO final, 100 uM genapol (which is a nonionic detergent, below it's Critical Micelle Concentration). Enzyme (0.2 nM) is pre-incubated for one hour with inhibitors added in 1 uL of DMSO. Then the assay is started by the addition of FRET substrate (50 nM) and incubated for one hour. The FRET assay is terminated with by addition of Tris buffer, which raises the pH to neutrality, and the fluorescence is determined. The FRET substrate is a peptide with commercially available fluorophore and quencher, on opposite sides of the BACE cleavage site. Proteolytic cleavage of the FRET substrate releases quenching of fluorescence (excitation 488 nm and emission […]).
# [1] = tested on: Aβ40 in conditioned medium of cells stably expressing Amyloid Precursor Protein (APP); assay: BACE cell-based assay: Aβ40 in conditioned medium by sandwich ELISA
# Procedure, shortened: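 Aβ40 in conditioned medium was read by time-resolved fluorescence sandwich ELISA (capture pAb40, detection biotinylated 6E10, 4° C incubations). Compounds were applied for 24 h to cells stably expressing APP, at 10 doses from 100 or 10 μM top, 0.1% DMSO. IC50 derived from percent of control.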
# [2] = cells stably expressing APP, 24 h incubation with compound, Aβ40 in supernatant by sandwich ELISA, read-out: IC50 values in the cell-based assay (inhibition or reduction of Aβ40)
# [3] = cell based assay data of Table 4, unit inferred, read-out: Cell Assay
# [4] = cell based assay data, Table 4, unit inferred, read-out: Cell Assay
# Sequence of BACE (P56817 46-501, species assumed): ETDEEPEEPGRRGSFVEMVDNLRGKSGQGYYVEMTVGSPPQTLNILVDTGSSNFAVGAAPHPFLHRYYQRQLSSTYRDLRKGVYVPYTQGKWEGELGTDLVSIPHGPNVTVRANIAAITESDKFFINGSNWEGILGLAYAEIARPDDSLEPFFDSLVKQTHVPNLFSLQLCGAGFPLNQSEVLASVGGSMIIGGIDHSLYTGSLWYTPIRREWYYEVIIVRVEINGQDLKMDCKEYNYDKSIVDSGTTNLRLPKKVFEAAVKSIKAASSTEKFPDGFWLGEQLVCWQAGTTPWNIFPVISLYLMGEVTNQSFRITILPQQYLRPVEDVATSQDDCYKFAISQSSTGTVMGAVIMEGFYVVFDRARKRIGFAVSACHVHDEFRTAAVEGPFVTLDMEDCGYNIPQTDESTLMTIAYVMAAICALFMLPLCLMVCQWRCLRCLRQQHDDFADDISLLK
Compound,IC50 (BACE) [nM],"IC50 [1, 4] [nM]",other results
CC(=O)N[C@@H](Cc1ccccc1)[C@H](O)CN[C@H]1CC2(CCC2)Oc2ccc(N3CCOC[C@@H]3C)cc21 [Example 139],≤ 5000,,"IC50 [1, 2]: ≤ 5000 nM"
COCC(=O)N[C@@H](Cc1cccc(Cl)c1)[C@H](O)CN[C@H]1CC(C)(C)Oc2ccc(Br)cc21 [Example 180],≤ 5000,,
CC(=O)N[C@@H](Cc1cccc(Cl)c1)[C@H](O)CN[C@H]1CC(C)(C)Oc2ccc(Br)cc21 [Example 182],≤ 5000,,
CC(=O)N[C@@H](Cc1ccccc1)[C@H](O)CN[C@H]1CC2(CCC2)Oc2ccc(N3CCCC3)cc21 [Example 264],≤ 5000,,
CC(=O)N[C@@H](Cc1ccccc1)[C@H](O)CN[C@H]1CC2(CCC2)Oc2ccc(N3C[C@@H]4C[C@H]3CO4)cc21 [Example 388],≤ 5000,,"IC50 [1, 2]: ≤ 5000 nM"
"CC(=O)N[C@@H](Cc1ccccc1)[C@H](O)CN[C@H]1CC2(CCC2)Oc2ncc(CC(F)(F)F)cc21 [Example 512, N-((1S,2R)-2-hydroxy-1-(phenylmethyl)-3-(((4′S)-6′-(2,2,2-trifluoroethyl)-3′,4′-dihydrospiro[cyclobutane-1,2′-pyrano[2,3-b]pyridin]-4′-yl)amino)propyl)acetamide]",≤ 5000,,"IC50 [1, 2]: ≤ 5000 nM"
"CC(=O)N[C@@H](Cc1cccc(F)c1)[C@H](O)CN[C@H]1CC2(CCC2)Oc2c1cc(CC(C)(C)C)nc2OC(C)C [Example 610, N-((1S,2R)-3-(((4′S)-6′-(2,2-dimethylpropyl)-8′-((1-methylethyl)oxy)-3′,4′-dihydrospiro[cyclobutane-1,2′-pyrano[2,3-c]pyridin]-4′-yl)amino)-1-((3-fluorophenyl)methyl)-2-hydroxypropyl)acetamide]",≤ 5000,,"IC50 [1, 3]: 17.2 nM"
"C=CC[C@H](NC(C)=O)[C@H](O)CN[C@H]1CC2(CCC2)Oc2ncc(CC(C)(C)C)cc21 [Example 736, N-((1S)-1-((1R)-2-(((4′S)-6′-(2,2-dimethylpropyl)-3′,4′-dihydrospiro[cyclobutane-1,2′-pyrano[2,3-b]pyridin]-4′-yl)amino)-1-hydroxyethyl)-3-buten-1-yl)acetamide]",≤ 5000,34,
CC(=O)N[C@@H](Cc1cc(Cl)ccc1F)[C@H](O)CN[C@H]1CC2(CCC2)Oc2ncc(CC(C)(C)C)cc21 [compound 867],,2.33,
CC(=O)N[C@@H](Cc1cccc(Cl)c1F)[C@H](O)CN[C@H]1CC2(CCC2)Oc2ncc(CC(C)(C)C)cc21 [compound 868],,6.26,
CC(=O)N[C@@H](Cc1cc(F)c(F)c(Cl)c1)[C@H](O)CN[C@H]1CC2(CCC2)Oc2ncc(CC(C)(C)C)cc21 [compound 869],,17.9,
CC(=O)N[C@@H](Cc1c(F)ccc(F)c1F)[C@H](O)CN[C@H]1CC2(CCC2)Oc2ncc(CC(C)(C)C)cc21 [compound 870],,35.6,
CC(=O)N[C@@H](Cc1cc(F)cc(F)c1F)[C@H](O)CN[C@H]1CC2(CCC2)Oc2ncc(CC(C)(C)C)cc21 [compound 871],,2.03,
CC(=O)N[C@@H](Cc1ccc(Br)cc1)[C@H](O)CN[C@H]1CC2(CCC2)Oc2ncc(CC(C)(C)C)cc21 [compound 872],,34.5,
COC(=O)N[C@@H](Cc1ccccc1)[C@H](O)CN[C@H]1CC2(CCC2)Oc2ncc(CC(C)(C)C)cc21 [compound 873],,20.6,
CCc1cnc2c(c1)[C@@H](NC[C@@H](O)[C@H](Cc1cc(F)cc(F)c1)NC(C)=O)CC1(CCC1)O2 [compound 874],,12.1,
CCc1cnc2c(c1)[C@@H](NC[C@@H](O)[C@H](Cc1cc(F)cc(F)c1)NC(=O)OC)CC1(CCC1)O2 [compound 875],,325,
COC(=O)N[C@@H](Cc1cc(F)cc(F)c1)[C@H](O)CN[C@H]1CC2(CCC2)Oc2ncc(CC(C)(C)C)cc21 [compound 876],,10.8,
CCC(=O)N[C@@H](Cc1ccccc1)[C@H](O)CN[C@H]1CC2(CCC2)Oc2cnc(CC(C)(C)C)cc21 [compound 877],,64.1,
CC(=O)N[C@@H](Cc1ccc(F)cc1)[C@H](O)CN[C@H]1CC2(CCC2)Oc2ncc(CC(C)(C)CO)cc21 [compound 878],,236,
"N-((1S,2R)-3-(((2R,4S)-1′-acetyl-6-ethyl-3,4-dihydrospiro[chromene-2,3′-pyrrolidin]-4-yl)amino)-2-hydroxy-1-(phenylmethyl)propyl)acetamide N-((1S,2R)-3-(((2S,4S)-1′-acetyl-6-ethyl-3,4-dihydrospiro[chromene-2,3′-pyrrolidin]-4-yl)amino)-2-hydroxy-1-(phenylmethyl)propyl)acetamide [compound 812]",,1950,
"N-((1S,2R)-3-(((3S,4′S)-6′-(2,2-dimethylpropyl)-3′,4,4′,5-tetrahydrospiro[furan-3,2′-pyrano[2,3-b]pyridin]-4′-yl)amino)-1-((4-fluorophenyl)methyl)-2-hydroxypropyl)acetamide N-((1S,2R)-3-(((3R,4′S)-6′-(2,2-dimethylpropyl)-3′,4,4,5-tetrahydrospiro[furan-3,2′-pyrano[2,3-b]pyridin]-4′-yl)amino)-1-((4-fluorophenyl)methyl)-2-hydroxypropyl)acetamide [compound 658]",,,"IC50 [1, 3]: 20.2 nM"
"N-((1S,2R)-3-(((4R)-6-(2,2-dimethylpropyl)-2,2-dimethyl-1,2,3,4-tetrahydro-4-quinolinyl)amino)-2-hydroxy-1-(phenylmethyl)propyl)acetamide N-((1S,2R)-3-(((4S)-6-(2,2-dimethylpropyl)-2,2-dimethyl-1,2,3,4-tetrahydro-4-quinolinyl)amino)-2-hydroxy-1-(phenymethyl)propyl)acetamide [compound 689]",,,"IC50 [1, 3]: 72.8 nM"
"N-((1S,2R)-3-(((4′S)-6′-(2,2-dimethylpropyl)-3′,4′-dihydrospiro[cyclopropane-1,2′-pyrano[2,3-b]pyridin]-4′-yl)amino)-1-((4-fluoro-3-methylphenyl)methyl)-2-hydroxypropyl)acetamide [compound 550]",,,"IC50 [1, 3]: 20.3 nM"
"N-((1S,2R)-3-(((4′S)-6′-bromo-3′,4′-dihydrospiro[cyclobutane-1,2′-pyrano[2,3-b]pyridin]-4′-yl)amino)-1-((4-fluorophenyl)methyl)-2-hydroxypropyl)acetamide [compound 843]",,503,
